Laboratory results: article PMC7650660, “Potential of Cell-Free Supernatant from Lactobacillus plantarum NIBR97, Including Novel Bacteriocins, as a Natural Alternative to Chemical Disinfectants” (Pharmaceuticals, 2020)
≈ marks a conversion by molar mass, not a printed value. Peptide text beside a SMILES is read from it.

Legend:
Salmonella Typhimurium = type: cell-based; settings: synthetic peptides against S. Typhimurium; Figure S3
Procedure: L. plantarum NIBR97 was incubated at 37 °C for 24 h in an MRS liquid medium (10 g/L peptone, 8 g/L meat extract, 4 g/L yeast extract, 20 g/L d(+)-glucose, 2 g/L dipotassium hydrogen phosphate, 5 g/L sodium acetate trihydrate, 2 g/L triammonium citrate, 0.2 g/L magnesium sulfate heptahydrate, and 0.05 g/L manganous sulfate tetrahydrate). The cultural broth was centrifuged for 20 min at 2000× g, and the centrifugal supernatant was collected and then sterilized by a 0.22 μm filtration. The sterilized fluid was either applied directly for the examination of antimicrobial activity or fractionated and stored at −80 °C until use. The assessment of antimicrobial activity on a microtiter plate was performed by some modification of the dilution assay of Wiegand et al.. The MIC50 and MIC90 were expressed as total proteins equivalent (μg) per volume (mL) of the sample, and the effect of proteinase K treatment was examined by a previously described procedure.
Figure 3. Antibacterial activity of synthetic Plantaricins identified from the L. plantarum NIBR97
genome. Pln 1, 2, 3, 4 and 5 were synthesized according to the amino acid sequences in Figure 3, and
further examined for their antibacterial activity against a Salmonella enterica serotype, S.
The Y axis in the graphs represents the relative growth of S. Typhimurium. […]

[1] = tested on: HEK-293T cells (human host cells); assay: Cytotoxic effect on host cells (bright-field images) in the lentivirus test; type: cell-based; settings: lentiviruses treated with 5 μg/μL of synthetic peptides
Procedure: (A) For fluorescence microscopy, we treated GFP-labeled lentiviruses with the cell-free supernatant for 5 min and 24 h, and then were infected in HEK-293T human host cells. The 1× and 5× correspond to the concentrations treated to the lentiviruses, 79.15 and 395.75 μg total proteins/mL, respectively. The bright-field images (Bright) indicate the HEK-293T cells, and the green signals in the fluorescent images (GFP) represent the GFP-labeled lentiviruses. (B) For scanning electron microscopy, the GFP-labeled lentiviruses were treated without (a) or with the cell-free supernatant (395.75 μg total proteins/mL) (b) for 5 min.
Figure 5 Fluorescence micrographs of HEK-293T cells infected with GFP-labeled lentiviruses treated with synthetic Pln 3 and 5. The lentiviruses were treated without (control) or with the synthetic peptides (1 to 5 μg/μL) Pln 3 (A) and 5 (B) for 5 min or 24 h, and then the HEK-293T human host cells were infected. The bright-field images (Bright) indicate the HEK-293T cells, and the green signals in the fluorescent images (GFP) represent the GFP-labeled lentiviruses.
For the anti-viral test, we co-incubated 2 μL of lentivirus soup (2.8 × 10^6 lentiviruses/μL) with 2 μL of test sample for 5 min and 24 h at 25 °C. After the co-incubation, 2 μL from the total 4 μL of the test sample–lentivirus mixture was infected in HEK-293T cells (1 × 10^4 cells per well).

CC[C@H](C)[C@H](NC(=O)CNC(=O)[C@@H](NC(=O)[C@H](CO)NC(=O)CNC(=O)[C@@H](NC(=O)[C@H](CC(C)C)NC(=O)[C@H](CO)NC(=O)CNC(=O)[C@H](CC(C)C)NC(=O)[C@@H](N)C(C)C)[C@@H](C)CC)C(C)C)C(=O)NCC(=O)N[C@H](C(=O)N[C@@H](CC(C)C)C(=O)N[C@@H](CO)C(=O)N[C@@H](CO)C(=O)N[C@@H](CC(C)C)C(=O)N[C@@H](C)C(=O)N[C@@H](C)C(=O)N[C@@H](CCCNC(=N)N)C(=O)N[C@@H](Cc1ccc(O)cc1)C(=O)N[C@@H](CCCCN)C(=O)O)C(C)C [Pln 1] (H-VLGSLIGSVGIGVLSSLAARYK-OH)
MIC50 (Salmonella Typhimurium): 5480 µg/mL (≈ 2540 µM)

CC[C@H](C)[C@H](N)C(=O)N[C@@H](Cc1ccc(O)cc1)C(=O)N1CCC[C@H]1C(=O)N[C@@H](CCC(=O)O)C(=O)N[C@@H](CCCCN)C(=O)N[C@@H](CCC(N)=O)C(=O)N1CCC[C@H]1C(=O)N[C@@H](CCC(=O)O)C(=O)N[C@@H](CCC(=O)O)C(=O)N1CCC[C@H]1C(=O)N[C@H](C(=O)N[C@@H](CCCNC(=N)N)C(=O)N[C@@H](CCCNC(=N)N)C(=O)O)C(C)C [Pln 2] (H-IYPEKQPEEPVRR-OH)
MIC50 (Salmonella Typhimurium): 4840 µg/mL (≈ 2950 µM)

CSCC[C@H](NC(=O)CNC(=O)[C@@H](NC(=O)[C@@H]1CCCN1C(=O)[C@H](CCSC)NC(=O)CNC(=O)[C@H](CC(N)=O)NC(=O)[C@H](CC(N)=O)NC(=O)[C@H](Cc1ccc(O)cc1)NC(=O)[C@@H](NC(=O)[C@H](CCC(N)=O)NC(=O)[C@H](CS)NC(=O)[C@H](CCCNC(=N)N)NC(=O)[C@H](CCCNC(=N)N)NC(=O)[C@H](CO)NC(=O)[C@H](CCCCN)NC(=O)[C@@H](N)CCCCN)C(C)C)[C@@H](C)O)C(=O)N[C@@H](Cc1ccc(O)cc1)C(=O)N[C@H](C(=O)N[C@@H](CO)C(=O)N[C@@H](CS)C(=O)O)[C@@H](C)O [Pln 3] (H-KKSRRCQVYNNGMPTGMYTSC-OH)
cytotoxicity on the human host cells [1]: exhibited a cytotoxicity on the human host cells | MIC50 (Salmonella Typhimurium): 5170 µg/mL (≈ 2130 µM)

CC[C@H](C)[C@H](NC(=O)CNC(=O)[C@@H](NC(=O)[C@H](C)NC(=O)[C@H](CCSC)NC(=O)[C@H](C)NC(=O)[C@H](CCCCN)NC(=O)[C@H](Cc1ccccc1)NC(=O)[C@@H]1CCCN1C(=O)[C@H](CCC(=O)O)NC(=O)[C@H](CCCNC(=N)N)NC(=O)[C@@H](NC(=O)[C@@H](NC(=O)[C@@H]1CCCN1)[C@@H](C)CC)C(C)C)C(C)C)C(=O)N[C@H](C(=O)N[C@@H](CC(C)C)C(=O)N[C@@H](C)C(=O)N[C@H](C(=O)N[C@@H](CCSC)C(=O)N[C@@H](CO)C(=O)NCC(=O)N[C@@H](CC(C)C)C(=O)N[C@@H](CC(C)C)C(=O)N[C@H](C(=O)N[C@H](C(=O)O)[C@@H](C)O)C(C)C)C(C)C)[C@@H](C)CC [Pln 4] (H-PIVREPFKAMAVGIILAVMSGLLVT-OH)
MIC50 (Salmonella Typhimurium): 5650 µg/mL (≈ 2150 µM)

CC(C)C[C@H](NC(=O)[C@H](CCCNC(=N)N)NC(=O)[C@H](CC(N)=O)NC(=O)[C@H](CCCNC(=N)N)NC(=O)[C@H](CC(C)C)NC(=O)[C@H](Cc1ccccc1)NC(=O)[C@H](CCCNC(=N)N)NC(=O)[C@H](CCCCN)NC(=O)[C@H](CCCCN)NC(=O)[C@H](C)NC(=O)[C@@H](N)CCCCN)C(=O)N[C@@H](CO)C(=O)N[C@@H](CCC(N)=O)C(=O)N[C@@H](CCC(N)=O)C(=O)N[C@@H](C)C(=O)N[C@@H](CCCNC(=N)N)C(=O)N[C@@H](CCCCN)C(=O)N[C@@H](C)C(=O)N[C@@H](CCCNC(=N)N)C(=O)N[C@H](C(=O)N[C@@H](CCCCN)C(=O)O)[C@@H](C)O [Pln 5] (H-KAKKRFLRNRLSQQARKARTK-OH)
cytotoxicity on the human host cells [1]: exhibited a cytotoxicity on the human host cells | MIC50 (Salmonella Typhimurium): 4450 µg/mL (≈ 1720 µM)
